Measured values: patent US20170334899A1, “AMINO-SUBSTITUTED ISOTHIAZOLES” (Bayer Pharma Aktiengesellschaft, priority 2014, published 2017)

Target: T1, human kinase Mps-1 (Homo sapiens, UniProt P33981)
T1 construct: N-terminally GST-tagged human full length recombinant Mps-1 kinase; GST (N); purchased Invitrogen, Karslruhe, Germany PV4071
T1 sequence (P33981 1-857): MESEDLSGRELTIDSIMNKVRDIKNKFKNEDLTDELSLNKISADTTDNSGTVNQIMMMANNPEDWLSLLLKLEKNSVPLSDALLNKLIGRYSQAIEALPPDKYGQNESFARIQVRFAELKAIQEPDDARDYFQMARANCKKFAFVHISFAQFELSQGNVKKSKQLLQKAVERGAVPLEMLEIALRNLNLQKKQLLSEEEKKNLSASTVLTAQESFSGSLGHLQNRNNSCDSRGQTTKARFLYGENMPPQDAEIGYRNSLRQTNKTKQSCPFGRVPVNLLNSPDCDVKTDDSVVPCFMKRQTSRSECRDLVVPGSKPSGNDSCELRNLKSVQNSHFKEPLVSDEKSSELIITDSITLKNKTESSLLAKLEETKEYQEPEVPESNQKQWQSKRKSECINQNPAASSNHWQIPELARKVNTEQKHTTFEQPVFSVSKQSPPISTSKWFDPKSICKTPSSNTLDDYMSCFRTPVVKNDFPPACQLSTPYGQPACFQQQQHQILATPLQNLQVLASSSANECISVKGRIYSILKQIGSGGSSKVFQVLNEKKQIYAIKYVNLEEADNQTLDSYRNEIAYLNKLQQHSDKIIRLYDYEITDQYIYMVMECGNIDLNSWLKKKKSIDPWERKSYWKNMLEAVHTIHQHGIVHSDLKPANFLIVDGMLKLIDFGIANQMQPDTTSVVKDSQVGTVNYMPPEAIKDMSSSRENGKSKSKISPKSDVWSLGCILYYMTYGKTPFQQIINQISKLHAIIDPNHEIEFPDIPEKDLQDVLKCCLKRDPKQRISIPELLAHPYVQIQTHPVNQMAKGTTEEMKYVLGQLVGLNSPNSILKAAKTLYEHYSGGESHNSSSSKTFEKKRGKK
Assay: Mps-1 kinase assay (TR-FRET)
Format: biochemical
Settings: Mps-1 TR-FRET kinase assay; avg; read-out: Mps1 avg (IC50 [mol/l])
How it was run: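 Inhibition normalised between uninhibited reaction (0%) and enzyme-free wells (100%), using the blank-corrected TR-FRET 665/620 nm ratio after EDTA stop. Reaction: ~0.5 nM GST-Mps-1 full length, 10 μM ATP, 1 μM biotin-peptide, 60 min at 22 °C, after 15 min compound pre-binding, pH 7.7.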

IC50 [µM]	Compound
≥ 20	Cc1nsc(Nc2cnc(C(F)(F)F)cn2)c1C(=O)Nc1ccc(F)c(OCC2CCN(C(CF)CF)C2)c1 (stereo not drawn) [Example 320, N-(3-{[1-(1,3-difluoropropan-2-yl)pyrrolidin-3-yl]methoxy}-4-fluorophenyl)-3-methyl-5-{[5-(trifluoromethyl)pyrazin-2-yl]amino}-1,2-thiazole-4-carboxamide]
≥ 20	Cc1nsc(Nc2cnc(C(F)(F)F)cn2)c1C(=O)Nc1ccc(OCCNCCF)nc1 [Example 321, N-(6-{2-[(2-fluoroethyl)amino]ethoxy}pyridin-3-yl)-3-methyl-5-{[5-(trifluoromethyl)pyrazin-2-yl]amino}-1,2-thiazole-4-carboxamide]
≥ 20	Cc1nsc(Nc2cnc(C(F)(F)F)cn2)c1C(=O)Nc1ccc(OCCNCC(F)(F)F)nc1 [Example 322, 3-methyl-N-(6-{2-[(2,2,2-trifluoroethyl)amino]ethoxy}pyridin-3-yl)-5-{[5-(trifluoromethyl)pyrazin-2-yl]amino}-1,2-thiazole-4-carboxamide]
